Data as given in PMC10051608, “Multi-Compartmental Dissolution Method, an Efficient Tool for the Development of Enhanced Bioavailability Formulations Containing Poorly Soluble Acidic Drugs” (Pharmaceutics, 2023).
≈ marks a conversion by molar mass, not a printed value.

Legend:
[1] = literature data measured at 25 °C; cited from earlier work
[2] = Equilibrium solubility in biorelevant media, saturation shake-flask method; type: physicochemical; conditions: for solubility thermodynamic at 6 h: thermodynamic from solid, read-out: SpH ± SD; for increase in solubility: biorelevant media
Description: The saturation shake–flask method was used to determine the equilibrium solubility of the API [34, 35]. The measurements were carried out at 37 ± 0.1 °C. […] In case it was necessary, the pH was adjusted to the initial value with 1M NaOH solution after 1 h. The flasks were then placed in a GFL 1092 type shaking water bath (GFL GmbH, Burgwedel, Germany) and shaken at 150 rpm for 6 h. The agitation phase was followed by 18 h sedimentation at controlled temperature. A total of 3 aliquot (10–100 µL) samples were then taken from the saturated solution and diluted to the required extent (2–250x) with the tested medium. The concentration was measured by UV spectroscopy at λmax: 264 nm. […] In each medium, the solubility experiments were performed in triplicate. […] The equilibrium solubility was also investigated in biorelevant media modelling gastric and small intestinal fluid in a fasted and fed state with and without solubilizing agents (pepsin or lecithin and bile acid salts). The tested biorelevant media were Blank FaSSGF, FaSSGF, Blank FaSSIF, FaSSIF, FeSSGF-acetate (without milk), Blank FeSSIF, and FeSSIF.

[3] = pH-dependent equilibrium solubility, saturation shake-flask method in Britton-Robinson buffers and 1 M NaOH; type: physicochemical; conditions: 37 °C; for solubility thermodynamic at 6 h: aqueous buffer, thermodynamic from solid, mean of 3, read-out: SpH ± SD
Description: The saturation shake–flask method was used to determine the equilibrium solubility of the API [34, 35]. The measurements were carried out at 37 ± 0.1 °C. […] In case it was necessary, the pH was adjusted to the initial value with 1M NaOH solution after 1 h. The flasks were then placed in a GFL 1092 type shaking water bath (GFL GmbH, Burgwedel, Germany) and shaken at 150 rpm for 6 h. The agitation phase was followed by 18 h sedimentation at controlled temperature. A total of 3 aliquot (10–100 µL) samples were then taken from the saturated solution and diluted to the required extent (2–250x) with the tested medium. The concentration was measured by UV spectroscopy at λmax: 264 nm. […] In each medium, the solubility experiments were performed in triplicate.

solubility thermodynamic at 6 h ([2]; FeSSGF-acetate (without milk), fassgf or other biorelevant, FeSSGF-acetate, pH 4.5, 37 °C): 194 ± 2 µg/mL (≈ 0.94 mM) | increase in solubility ([2]; changing the pH from 1.6 to 4.5): 3.4 fold | increase in solubility ([2]; changing the pH from 1.6 to 5.0): 7.4 fold | increase in solubility ([2]; changing the pH from 1.6 to 6.5): 44.6 fold | solubility thermodynamic at 6 h ([2]; fassgf or other biorelevant, FeSSIF blank, pH 5.0, 37 °C): 416 ± 12 µg/mL (≈ 2.02 mM) | effect of pepsin on solubility ([2]; gastric pH): no effect | solubility thermodynamic at 6 h ([2]; FaSSIF, pH 6.5, 37 °C): 3160 ± 31 µg/mL (≈ 15.3 mM) | solubility thermodynamic at 6 h ([2]; FeSSIF, pH 5.0, 37 °C): 2100 ± 56 µg/mL (≈ 10.2 mM) | solubility thermodynamic at 6 h ([3]; BR (Britton-Robinson) buffer, pH 1.92 (nominal pH 2.0) BR buffer): 70.8 ± 3 µg/mL (≈ 0.343 mM) | solubility thermodynamic at 6 h ([3]; BR (Britton-Robinson) buffer, pH 3.96 BR buffer): 124 ± 13 µg/mL (≈ 0.601 mM) | solubility thermodynamic at 6 h ([3]; BR (Britton-Robinson) buffer, pH 5.95 BR buffer): 1910 ± 70 µg/mL (≈ 9.26 mM) | solubility thermodynamic at 6 h ([3]; BR (Britton-Robinson) buffer, pH 7.17 BR buffer): 32000 µg/mL (≈ 155 mM) | solubility thermodynamic at 6 h ([3]; BR (Britton-Robinson) buffer, pH 8.02 BR buffer): 300000 µg/mL (≈ 1450 mM) | solubility thermodynamic at 6 h ([3]; pH 14, 1 M NaOH): 734000 µg/mL (≈ 3560 mM) | logSpH ([3]; pH 1.92 (nominal pH 2.0) BR buffer): −3.46 mol/L | logSpH ([3]; pH 3.96 BR buffer): −3.22 mol/L | logSpH ([3]; pH 5.95 BR buffer): −2.03 mol/L | logSpH ([3]; pH 7.17 BR buffer): −0.81 mol/L | logSpH ([3]; pH 8.02 BR buffer): 0.16 mol/L | logSpH ([3]; pH 14, 1 M NaOH): 0.55 mol/L
Structure (SMILES): CC(C)Cc1ccc(C(C)C(=O)O)cc1 (stereo not drawn) [ibuprofen]
intrinsic solubility logS0 [1]: −3.62
